Data set [1] can be described thus: Solubility concentration of saturated solutions determined by HPLC. Type of data set: physicochemical. Here is the method:
The tightness of the cells and absence of air bubbles in the receptor phase was monitored and given at each sampling point.
So, from manufacturing of the solutions, the amount of the compound of formula (Ia) per solvent volume was known (documentation by balance print out). That amount was named a saturated solution. Afterwards the saturated solution was centrifuged and the solubility concentration of the clear supernatant of the solution was determined quantitatively by HPLC. The saturation factor was calculated from the ratio of saturated solution:solubility concentration. A high ratio represented a high level of infinite dose.

Data set [2] concerns vesicourethral junction sphincter muscle strips. In words: Enzyme assay: regeneration of 1R,2S-methoxamine from compound (Ia) by gamma glutamyl transferase, reaction product tested on muscle strips. In kind it is cell-based, pig. As to conditions: for response of muscle strips: 0.3 mM. Here is the method: Regeneration of 1R,2S-methoxamine from the Compound of Formula (Ia)
Into a clean glass vial (1 ml volume) the following reaction mixtures were pipetted as follows:
200 μl compound of formula (Ia), 10 mg/ml in Tris buffer (mol. wt. 376, therefore=2 mg compound of formula (Ia)=5.3 μMoles), 100 μl solution E
Reaction product of groups 1, 2 and 3 were only tested for biological activity after 30 minutes of incubation period at 37° C. while that of group 4 were also tested after, 10, 30 and 60 minutes of incubation period. A 5 h group of which reaction mixture indicated in group four were diluted by two fold after 30 min incubation were also tested for biological activity.
Gamma glutamyl transferase, 2-1-18 porcine kidney was purchased from Calzyme Labs San Luis Obispo, Calif. 93401 USA, glyclglycine was obtained from Acros Organics, New Jersey, USA while L-glutamic acid 5-(4-nitroanilide) was purchased from Fluka Chemie Switzerland.
The reaction mixture was incubated in HOT BOX oven, size one incubator made by Gallenpark, England, while the absorbance was measured (@λmax 405 nm), using Anthos 2020 UV/VIS spectrophotometer.
Representative traces of pig vesicourethral junction sphincter muscle response to various enzyme reaction products are shown in FIG. 3 and representative traces of pig proximal sphincter muscle response to various enzyme reaction products are shown in FIG. 4. The enzyme reaction products tested are as follows: • FIG. 3a-50 mM Tris HCl buffer; • FIG. 3b-50 mM Tris HCl buffer, gamma glutamyl transferase. • FIG. 3c-50 mM Tris HCl buffer, MgCl2.6H2O, glycylglycine, compound of formula (Ia); • FIG. 4a-50 mM Tris HCl buffer, MgCl2.6H2O, glycylglycine, gamma glutamyl transferase, compound of formula (Ia); • FIG. 4b-0.3 mM 1R,2S-methoxamine.

Data set [3] can be described thus: In vitro percutaneous absorption (skin permeation) of saturated solutions, modified Franz cell. In kind it is in vitro ADME, human. As to conditions: dissolved in IPM/Pharmasolve 80:20 (v/v), compared with control solution. Here is the method:
For all experiments (one run with 9 cells) skin from one patient was used. The skin was excised full skin from surgery of the thigh, cleaned from adhering fat tissue, stored at −18° C. prior to use but not for longer than 6 months.
In vitro skin permeation investigation was performed as described in this Example.
The flux was calculated for every formulation by means of linear regression (performance with Excel software; regression coefficient to be >0.98) from the mean cumulative permeated amounts in μg/cm^2 during steady state against the time in hours. For test solution #1 the linear regression was calculated from 12-48 hours (not until 72 hours, because after 48 hours the permeation was decreasing). […] The lag-time (which was the time when steady state of permeation was starting after application) was taken from the intersection of the regression line with the time axis.
The transdermal delivery rate was assumed to be the same in vivo as it is in vitro (this must, of course, be proven by further kinetic studies). The patch size was set to 20 cm^2, which is middle sized (small patches are 5 cm^2; big patches are 60 cm^2) and the delivery rate was calculated daily (1 day=24 hours).
(flux rate steady state [μg/cm^2/h]×20 [cm^2]×24[h])/1000=delivery rate [mg/20 cm^2/24 h].

For the compound `COc1ccc(OC)c([C@@H](O)[C@H](C)NC(=O)CC[C@H](N)C(=O)O)c1` [compound of formula (Ia), (S)-2-Amino-4-[(1S,2R)-2-(2,5-dimethoxyphenyl)-2-hydroxy-1-methyl-ethylcarbamoyl]butyric acid], the “saturation concentration in the acceptor medium” value in data set [1] (0.9% NaCl 80%, PEG 400 20%, 0.1% NaN3) is 130 mg/mL. For the same compound, the “solubility in Ethanol” value in data set [1] (Ethanol) is “high solubility”. The water solubility entry in data set [1] (water) was “high”. The “solubility in both media” value in data set [1] (water and DMSO) was “high solubility”. For the same compound, the “response of muscle strips” value in data set [2] (prepared in saline) came out at 1.15 g; in data set [2] (prepared in tris buffer) it was 1.22 g. For the same compound, the “reduction of bladder activity of the reaction mixture” value in data set [2] (2-fold dilution post 30 min incubation with the enzyme) amounted to 38%. The contractile response in data set [2] (Mg^2+-glycylglycine-compound-enzyme mixture, 30 min incubation) was found to be 1.62 g; in data set [2] (buffer-Mg^2+-glycylglycine-compound, no enzyme, 30 min incubation), 0.12 g; in data set [2] (reaction mixture with enzyme, 10 min incubation), 1.52 g; in data set [2] (reaction mixture with enzyme, 60 min incubation), 1.10 g. Also, the “contractile response of pig bladder neck muscle” value in data set [2] (administered with gamma glutamyl transferase and glycylglycine, FIG. 4a) is reported as “pronounced well defined contractile response”. Also, the “enhancement factor for percutaneous absorption” value in data set [3] is reported as 13.84.

The values above are taken from patent US20080090916A1, “Compounds for Treating Urinary Incontinence” (priority 2005, published 2008).
